Reference: US20160324992A1, “IDENTIFICATION AND TREATMENT OF VULNERABLE PLAQUES” (OTTAWA HEART INSTITUTE RESEARCH CORPORATION, priority 2015, published 2016)
“Also recorded” adds a separate entry of the source.

Columns and labels:
[1] = Biodistribution in C57BL/6 mice; type: in vivo; conditions: for organ uptake: Blood / organ uptake: Brain / organ uptake: Femur / organ uptake: Heart / organ uptake: Intestine / organ uptake: Kidney / organ uptake: Liver / organ uptake: Lung / organ uptake: Muscle / organ uptake: Ovaries/testis / organ uptake: Spleen / organ uptake: Stomach / organ uptake: Thyroid / organ uptake: Urine: female C57BL/6 mice, i.v. 5.3-6.7 MBq, mean ± SD, n = 3
Method: (§1) Biodistribution studies were carried out on C57BL/6 mice weighing 19-21 g and Sprague Dawley rats weighing 400-560 g (Charles River Laboratories, Mass., USA). On the day of experimentation, the animals were anesthetized and maintained under isofluorane during the injection. A tail vein catheter was inserted, 5.3-6.7 MBq of 7-^123I-O-Nec-1 was administered to the mice and 3.1-3.3 MBq of 7-^123I-O-Nec-1 was injected into the rats. The animals were sacrificed at 1 hr or 2 hr post injection (p.i.) (n=3 per group). The heart, liver, kidney, muscle, femur, spleen, blood, brain, intestine, lung, stomach, urine/bladder, ovaries/testes and thyroid were extracted, weighed and analyzed for total gamma counts (Wizard 2 2480 Automatic Gamma Counter, Perkin Elmer). The tissue uptake was decay corrected, and the percentage of injected dose per gram (% ID/g) was calculated.

[2] = system: atherosclerotic lesions in ApoE−/− mice; test: Ex vivo autoradiography of aorta, en face and Oil Red O comparison; type: in vivo, mouse; conditions: for localization of the tracer in the aorta (in words): ApoE−/− mice with established lesions, 2 hours after i.v. injection, en face aortic arch; for correlation between lesion area measured by tracer autoradiography and ORO / en face (in words): ApoE−/− mice, ex vivo
Description: Radiochemistry and ex vivo autoradiography study with ApoE^−/− mice. The tracer ^123I-Nec-1 (7-^123I-Nec-1) was synthesized by a Cu(I) catalyzed direct halogen exchange reaction with the precursor 7-Br-Nec-1 and Na^123I. Eight week-old female apolipoprotein E knockout (Apo E^−/−) mice were purchased from Charles River Laboratories and fed either a chow or western diet (TD.10885, Harlan Laboratories) for 2 months (total n=6 mice). 7-^123I-O-Nec-1 (37.0-55.5 MBq) was administrated intravenously into the mice under anesthetic. After 2 hr, the mice were euthanized and perfused with PBS followed by 10% formalin via left ventricle cannulation. Aorta was dissected from heart at the base using a dissecting microscope following removal of surrounding fat and connective tissue. En face specimens were immediately exposed to super resolution phosphor screens in an autoradiography cassette. After overnight exposure at room temperature, the screens were scanned with a Cyclone Phosphor Imager (Perkin Elmer, Downers Grove, Ill.). Images were analyzed using OptiQuant™ 5.0 software. The regions of interest (ROI) were drawn around the lesions on the aortic arch, and the counts in Digital Light Unit (DLU) and surface areas in mm^2 were measured. The DLU was converted to activity in μCi using a set of calibration standards with known activities, which were exposed and scanned on the same screen used for the aorta samples, as previously described (Zhao et al, 2007; Matter et al., 2006). The percentage injected dose (% ID) was calculated from dividing the activity (pCi) of the lesion by the injected activity. Activity density in % ID/m^2 was calculated and normalized by animal body weight to get % ID×kg/m^2. The areas of the lesions and the whole aortic arch in mm^2 were also recorded using the OptiQuant™ 5.0 software, and the percentage of lesion within the area of the aorta vessel wall was calculated.
Ex vivo autoradiography study with ApoE^−/− mice. Eight week-old female apolipoprotein E knockout (Apo E^−/−) mice were purchased from Charles River Laboratories (Charles River, Canada) and fed either a chow or western diet (TD.10885, Harlan Laboratories) for 2 months (n=3 per group). […] 7-^123I-O-Nec-1 (37.0-55.5 MBq) was administrated intravenously into the mice under anesthetic. After 2 hr, the mice were euthanized in a CO2 chamber. Using a Gilson Minipuls 2 peristaltic pump, the mice were perfused with 20 mL phosphate buffered saline (PBS) followed by 10 mL of 10% formalin via left ventricle cannulation. Perfusate was drained from a cut within the right atrium. Aorta was dissected from heart at the base using a dissecting microscope following removal of surrounding fat and connective tissue. For en face experiments aortic tissues were flattened by a longitudinal cut through one side of the aortic wall cutting through the carotids and the innominant artery until the aorta was split forming a Y-shaped structure.
The uptake and distribution of the tracer on aortic tissue was studied using digital autoradiography method. En face specimens were immediately exposed to super resolution phosphor screens in a Fisher Biotech autoradiography cassette. After overnight exposure at room temperature, the screens were scanned with a Cyclone Phosphor Imager (Perkin Elmer, Downers Grove, Ill.). Images were analyzed using OptiQuant™ 5.0 software. The regions of interest (ROI) were drawn around the lesions on the aortic arch, and the counts in Digital Light Unit (DLU) and surface areas in mm^2 were measured. The DLU was converted to activity in pCi using a set of calibration standards with known activities, which were exposed and scanned on the same screen used for the aorta samples. The percentage injected dose (% ID) was calculated from dividing the activity (pCi) of the lesion by the injected activity. Activity density in % ID/m^2 was calculated and normalized by animal body weight to get % ID×kg/m^2. […]

Serum stability testing = type: in vitro ADME; conditions: 37° C., 24 hours, HPLC
Method: Serum stability testing of 7-^123I-O-Nec-1. Serum stability testing was carried out by mixing 25 μL of 7-^123I-O-Nec-1 (5) and 100 μL of rat serum at 37 ° C. for 24 hours. […] cold EtOH was added afterwards, and the mixture was centrifuged at 2500 ×g at 4° C. for 15 minutes to precipitate proteins. The supernatant was injected into HPLC.

[3] = Biodistribution in Sprague-Dawley rats; type: in vivo
Method: as §1

[4] = male Sprague-Dawley rats, 2 hr p.i., i.v. 3.1-3.3 MBq, mean ± SD, n = 3

organ uptake: Blood ([1]; 1 hr p.i.): 3.149 ± 0.547 % ID/g
organ uptake: Brain ([1]; 1 hr p.i.): 0.429 ± 0.170 % ID/g
organ uptake: Femur ([1]; 1 hr p.i.): 1.167 ± 0.214 % ID/g
organ uptake: Heart ([1]; 1 hr p.i.): 1.868 ± 0.519 % ID/g
organ uptake: Intestine ([1]; 1 hr p.i.): 16.578 ± 1.224 % ID/g
organ uptake: Kidney ([1]; 1 hr p.i.): 4.296 ± 1.084 % ID/g
organ uptake: Liver ([1]; 1 hr p.i.): 4.030 ± 0.824 % ID/g
organ uptake: Lung ([1]; 1 hr p.i.): 3.248 ± 0.788 % ID/g
organ uptake: Muscle ([1]; 1 hr p.i.): 0.859 ± 0.278 % ID/g
organ uptake: Ovaries/testis ([1]; 1 hr p.i.): 2.349 ± 0.570 % ID/g
organ uptake: Spleen ([1]; 1 hr p.i.): 2.657 ± 0.390 % ID/g
organ uptake: Stomach ([1]; 1 hr p.i.): 19.294 ± 2.556 % ID/g
organ uptake: Thyroid ([1]; 1 hr p.i.): 7.344 ± 1.469 % ID/g
organ uptake: Urine ([1]; 1 hr p.i.): 103.153 ± 41.005 % ID/g
organ uptake: Blood ([1]; 2 hr p.i.): 3.136 ± 1.024 % ID/g
organ uptake: Brain ([1]; 2 hr p.i.): 0.640 ± 0.847 % ID/g
organ uptake: Femur ([1]; 2 hr p.i.): 1.189 ± 0.205 % ID/g
organ uptake: Heart ([1]; 2 hr p.i.): 1.405 ± 0.484 % ID/g
organ uptake: Intestine ([1]; 2 hr p.i.): 25.573 ± 19.206 % ID/g
organ uptake: Kidney ([1]; 2 hr p.i.): 3.841 ± 0.429 % ID/g
organ uptake: Liver ([1]; 2 hr p.i.): 2.562 ± 0.916 % ID/g
organ uptake: Lung ([1]; 2 hr p.i.): 2.975 ± 1.025 % ID/g
organ uptake: Muscle ([1]; 2 hr p.i.): 0.723 ± 0.307 % ID/g
organ uptake: Ovaries/testis ([1]; 2 hr p.i.): 1.462 ± 0.184 % ID/g
organ uptake: Spleen ([1]; 2 hr p.i.): 2.173 ± 0.728 % ID/g
organ uptake: Stomach ([1]; 2 hr p.i.): 25.711 ± 4.877 % ID/g
organ uptake: Thyroid ([1]; 2 hr p.i.): 18.387 ± 14.764 % ID/g
organ uptake: Urine ([1]; 2 hr p.i.): 80.627 ± 12.850 % ID/g
organ uptake: Blood [3, 4]: 0.153 ± 0.031 % ID/g
organ uptake: Brain [3, 4]: 0.023 ± 0.004 % ID/g
organ uptake: Femur [3, 4]: 0.052 ± 0.009 % ID/g
organ uptake: Heart [3, 4]: 0.098 ± 0.007 % ID/g
organ uptake: Intestine [3, 4]: 0.867 ± 0.062 % ID/g
organ uptake: Kidney [3, 4]: 0.236 ± 0.016 % ID/g
organ uptake: Liver [3, 4]: 0.226 ± 0.028 % ID/g
organ uptake: Lung [3, 4]: 0.143 ± 0.013 % ID/g
organ uptake: Muscle [3, 4]: 0.048 ± 0.005 % ID/g
organ uptake: Ovaries/testis [3, 4]: 0.089 ± 0.009 % ID/g
organ uptake: Spleen [3, 4]: 0.106 ± 0.009 % ID/g
organ uptake: Stomach [3, 4]: 1.685 ± 0.395 % ID/g
organ uptake: Thyroid [3, 4]: 1.407 ± 0.189 % ID/g
organ uptake: Urine [3, 4]: 2.513 ± 0.282 % ID/g
in vivo de-iodination (in words) ([3]; normal Sprague-Dawley rats): some degree of in vivo de-iodination
SMILES: CN1C(=O)NC(Cc2c[nH]c3c([123I])cccc23)C1=O (centres unmarked) [7-^123I-O-Nec-1, 5-((7-lodo (^123I)-1H-indol-3-yl)methyl)-3-methylimidazolidine-2,4-dione]
clearance of the tracer (in words) ([1]; biodistribution in C57BL/6 mice, i.v.): fast renal and liver/gastrointestinal clearance; also recorded: excreted rapidly from the renal system
in vivo de-iodination (in words) ([1]; normal C57BL/6 mice, thyroid and stomach uptake 1 hr to 2 hr p.i.): de-iodination over time; also recorded: some degree of in vivo de-iodination; also recorded: limited in vivo de-iodination
aortic lesion uptake in HFD-fed ApoE−/− mice versus chow-fed ApoE−/− and control mice (in words) ([2]; 4 month old mice, 37.0-55.5 MBq i.v., 2 hr, n=3 per group): significantly higher tracer uptake
lesion uptake in chow-fed ApoE−/− mice versus aortic arch uptake of control mice (in words) ([2]; 4 month old mice, 2 hr p.i., p=0.3): similar; also recorded: not statistically significant
localization of the tracer in the aorta (in words) ([2]; listed as 123I-Nec-1): primarily localized to areas of plaque accumulation
localization of the tracer in the aorta (in words) ([2]; listed as 123INec-1): specifically localizes to advanced atherosclerotic lesion areas
correlation between lesion area measured by tracer autoradiography and ORO / en face (in words) [2]: good correlation
correlation between lesion area measured by tracer autoradiography and ORO / en face (in words) ([2]; listed as 123I-Nec-1): significant correlation
stability in rat serum (Serum stability testing): stable in serum, no de-iodination or degradation was found; also recorded: stable in vitro in serum
clearance of the tracer (in words) ([3]; biodistribution in Sprague-Dawley rats, i.v., 2 hr p.i.): fast renal and liver/gastrointestinal clearance; also recorded: excreted rapidly from the renal system
